Test results reported in PMC12105006, “AI-Driven De Novo Design and Development of Nontoxic DYRK1A Inhibitors” (Journal of Medicinal Chemistry, 2025).
“Also recorded” adds a separate entry of the source. Read-outs that look alike come from different tables or passages of the source.

Key:
[1] = PAMPA-BBB assay; type: in vitro ADME; details: for BBB prediction: PAMPA-BBB, porcine brain lipid, 3 h, 25 °C
Procedure: The brain penetration of active compounds was assessed using a parallel artificial membrane permeability assay (PAMPA). Eleven drugs with known blood–brain barrier (BBB) permeability–Hydrocortisone, testosterone, imipramine, piroxicam, promazine, clonidine, desipramine, ofloxacin, aldosterone, verapamil, and caffeine–were included in each experiment to validate the analysis.
The compounds were dissolved in a 70/30 PBS pH = 7.4 buffer/ethanol solution at a concentration that ensured appropriate absorbance values in the UV–vis light spectrum. A 5 mL volume of these solutions was filtered using PDVF membrane filters (30 mm diameter, 0.45 μ m pore size).
The acceptor 96-well microplate (MultiScreen 96-well Culture Tray clear, Merck Millipore) was filled with 200 μL of PBS/ethanol (70/30). The donor 96-well filtrate plate (Multiscreen IP Sterile Plate PDVF membrane, 0.45 μ m pore size, Merck Millipore) was coated with 4 μL of porcine brain lipid (Spectra 2000) in dodecane (20 mg mL^–1).
After 5 min, 200 μL of each compound solution were added. The donor plate was then carefully placed onto the acceptor plate to form a “sandwich,” which was left undisturbed for 3 h at 25 °C. During this time, the compounds diffused from the donor plate through the brain lipid membrane into the acceptor plate.
After incubation, the donor plate was removed. The concentrations of the compounds and commercial drugs were determined by measuring absorbance in the donor wells (before incubation) and the acceptor wells (after incubation) using a CLARIOstar microplate reader (BMG LABTECH). Each sample was analyzed at five wavelengths in four replicates and two independent experiments.
The permeability coefficient (P e) of each drug, in centimeters per second, was calculated using the following formula Pe=Vd·Vr/(Vd−Vr)·s·t·100·Vd/100·Vd−%T(Vd−Vr) %T=Vr·Ar/Ad·Vd·100 where V d and V r are the volumes of the donor and receptor solutions (0.2 cm^3), s is the membrane area (0.2642 cm^2), t is the incubation time (3 h = 10,800 s), A r is the absorbance of the receptor plate after the experiment, and A d is the absorbance in the donor compartment before incubation. The results obtained for quality control drugs were compared with permeability data from the literature. […] Compounds that correlate with reported P e values between 2 and 4 × 10^–6 cm s^–1 are classified as CNS+/–.

[2] = Oxygen radical absorbance capacity (ORAC) antioxidant assay
[3] = system: LPS-induced NO production in BV2 microglial cells; experiment: LPS-induced nitrite (NO) production, Griess reaction; type: cell-based, mouse; details: for dose-dependent inhibition of LPS-induced NO production: decreasing concentrations (Figures S17, S18); for LPS-induced NO production: maximum dose 5 μM (1, 5, 8, 9) or 10 μM (6, 7, 10, 11), LPS 24 h, 1 h pretreatment
Procedure: (§1) The mouse microglial BV2 cell line was propagated using DMEM, 10% FBS, 1% streptomycin–penicillin, under humidified 5% CO2 and 95% air. On attaining semiconfluence, cells were treated with 400 ng/mL of LPS for 24 h. Some cultures were pretreated for 1 h with the different compounds at several concentrations ranging from 1 to 10 μM. After treatment, cultures were processed for cell viability and nitrite production. Experiments were performed in triplicate. BV2 cells, microglial cells derived from C57/BL6 murine. These cells were immortalized using the v-raf/v-myc carrying J2 retrovirus, resulting in a stable cell line. The cells are commercially available from https://www.cytion.com/BV2-Cells/305156.
The assessment of NO production involved quantifying nitrite levels, one of the end products of NO oxidation, through a procedure based on the diazotization of nitrite by sulfanilic acid (Griess reaction). Upon reaching semiconfluence, cells were exposed to 400 ng/mL of LPS for 24 h. Before this, certain cultures were pretreated with various compounds at concentrations ranging from 0.5 to 10 μM. Following a 24-h incubation period, 50 μL aliquots of the samples were combined with 50 μL of Griess reagent in 96-well plates, and the mixture was allowed to incubate at room temperature for 10 min. The absorbance of the resulting mixture was then measured at 520 nm using a microplate reader.

[4] = biological target: Human DYRK1A Kinase (Homo sapiens, UniProt Q13627); experiment: ADP-Glo DYRK1A kinase enzyme inhibition assay; details: for IC50: read-out: IC50 (nM) DYRK1A, ATP (10 μmol/well) and DYRKtidE (4 μmol/well) as substrate, triplicate
[5] = system: BV2 microglial cells; experiment: MTT cell viability / toxicity in BV2 cells; type: cell-based, mouse
Procedure: as §1
Cell viability was determined using the MTT assay, which measures the reduction of 3-(4,5-dimethylthiazol-2-yl)-2,5-diphenyltetrazolium bromide (MTT) to formazan crystals. Briefly, the MTT solution (2 mg/mL) was added to each well and incubated at 37 °C for 2 h. After removing the culture medium, 100 μL of dimethyl sulfoxide was added to each well to dissolve the formazan. The optical density was measured at 532 nm using a microplate reader. The absorbance of the control group was considered as 100% of the cell viability.

[6] = biological target: DYRK1B (Homo sapiens, UniProt Q9Y463); experiment: ADP-Glo DYRK1B kinase enzyme inhibition assay; details: read-out: IC50 (nM) DYRK1B; ATP (10 μmol/well) and DYRKtidE (4 μmol/well) as substrate; triplicate
Sequence of DYRK1B (Q9Y463 whole entry): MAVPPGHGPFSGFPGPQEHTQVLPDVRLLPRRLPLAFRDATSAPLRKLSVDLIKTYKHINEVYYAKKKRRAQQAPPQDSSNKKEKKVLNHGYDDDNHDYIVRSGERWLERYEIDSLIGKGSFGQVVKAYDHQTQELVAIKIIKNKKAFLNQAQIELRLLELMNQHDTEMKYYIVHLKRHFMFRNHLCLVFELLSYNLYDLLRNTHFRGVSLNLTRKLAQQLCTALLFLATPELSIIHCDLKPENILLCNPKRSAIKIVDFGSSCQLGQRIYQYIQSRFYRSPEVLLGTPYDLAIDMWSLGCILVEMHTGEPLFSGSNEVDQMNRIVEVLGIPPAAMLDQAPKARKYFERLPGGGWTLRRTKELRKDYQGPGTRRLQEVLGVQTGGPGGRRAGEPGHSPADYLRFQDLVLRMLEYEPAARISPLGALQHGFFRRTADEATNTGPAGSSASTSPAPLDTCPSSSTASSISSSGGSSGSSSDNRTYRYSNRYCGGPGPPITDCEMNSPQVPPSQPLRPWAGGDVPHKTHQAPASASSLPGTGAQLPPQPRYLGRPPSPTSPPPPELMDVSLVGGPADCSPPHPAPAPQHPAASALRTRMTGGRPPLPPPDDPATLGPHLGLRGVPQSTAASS

[7] = phosphate buffer pH 7.4, fluorescein/AAPH

Row | SMILES | IC50 [4] [nM] | IC50 [6] [nM] | ability to cross the blood–brain barrier by passive permeation ([1]; PAMPA) | BBB prediction [1] | ORAC [2] | ORAC [2, 7] | dose-dependent inhibition of LPS-induced NO production [3] | DYRK1A activity / IC50 values [4] | toxicity (MTT assay) ([5]; at 5 μM) | toxicity (MTT assay) ([5]; at 10 μM) | toxicity (MTT assay) ([5]; concentrations up to 10 μM) | LPS-induced NO production [3] | ORAC values [2]
1 | COc1cc(-c2c[nH]c3ncc(-c4cnn(C5CCNCC5)c4)cc23)c(F)cc1C [Compound 11, 3-(2-Fluoro-5-methoxy-4-methylphenyl)-5-(1-(piperidin-4-yl)-1H-pyrazol-4-yl)-1H-pyrrolo[2,3-b]pyridine] | 165 ± 17 | 165 ± 30 |  | CNS+ (CNS+, correlating with a bibliographic P e > 4) | 1.20 ± 0.1 | 1.2 ± 0.1 μmol of trolox equivalents/μmol of tested compound |  |  |  |  | nontoxic |  | 
2 | COc1cc(-c2c[nH]c3ncc(-c4cnn(C5CCN(C)CC5)c4)cc23)c(F)cc1C [Compound 7, 3-(2-Fluoro-5-methoxy-4-methylphenyl)-5-(1-(1-methylpiperidin-4-yl)-1H-py-razol-4-yl)-1H-pyrrolo[2,3-b]pyridine] |  | 174 ± 31 |  | CNS+ (CNS+, correlating with a bibliographic P e > 4) | 1.3 ± 0.1 | 1.3 ± 0.1 μmol of trolox equivalents/μmol of tested compound |  |  |  |  | nontoxic |  | 
3 | Fc1cccc(-c2c[nH]c3ncc(-c4cnn(C5CCNCC5)c4)cc23)c1 [Compound 8, 3-(3-Fluorophenyl)-5-(1-(piperidin-4-yl)-1H-pyrazol-4-yl)-1H-pyrrolo[2,3-b]py-ridine] | 48 ± 3 | 70 ± 5 |  | CNS+ (CNS+, correlating with a bibliographic P e > 4) | 1.0 ± 0.1 | 1.0 ± 0.1 μmol of trolox equivalents/μmol of tested compound | particularly strong | comparable to the reference compound, harmine | nontoxic | exhibited toxicity |  | most pronounced effects | 
4 | Clc1cc(Cl)cc(-c2c[nH]c3ncc(-c4cnn(C5CCNCC5)c4)cc23)c1 [Compound 10, 3-(3,5-Dichlorophenyl)-5-(1-(piperidin-4-yl)-1H-pyrazol-4-yl)-1H-pyrrolo[2,3-b]pyridine] | 450 ± 18 | 566 ± 61 | in the limit of a positive prediction | CNS+/– (Compounds that correlate with reported P e values between 2 and 4 × 10^–6 cm s^–1 are classified as CNS+/–) | 0.55 ± 0.07 | 0.55 ± 0.07 μmol of trolox equivalents/μmol of tested compound |  |  |  |  | nontoxic |  | around 0.5 trolox equivalents

The next lines start with results.

Row | IC50 [4] [nM] | IC50 [6] [nM] | ability to cross the blood–brain barrier by passive permeation ([1]; PAMPA) | SMILES | BBB prediction [1] | ORAC [2] | ORAC [2, 7] | dose-dependent inhibition of LPS-induced NO production [3] | DYRK1A activity / IC50 values [4] | toxicity (MTT assay) ([5]; at 5 μM) | toxicity (MTT assay) ([5]; at 10 μM) | toxicity (MTT assay) ([5]; concentrations up to 10 μM) | LPS-induced NO production [3] | ORAC values [2]
5 | 81 ± 4 | 109 ± 8 |  | COc1cccc(-c2c[nH]c3ncc(-c4cnn(C5CCNCC5)c4)cc23)c1 [Compound 9, 3-(3-Methoxyphenyl)-5-(1-(piperidin-4-yl)-1H-pyrazol-4-yl)-1H-pyrrolo[2,3-b]pyridine] | CNS+ (CNS+, correlating with a bibliographic P e > 4) | 1.3 ± 0.1 | 1.3 ± 0.1 μmol of trolox equivalents/μmol of tested compound | particularly strong | comparable to the reference compound, harmine | nontoxic | exhibited toxicity |  |  | 
6 | 41 ± 3 | 78 ± 3 |  | CN1CCC(n2cc(-c3cnc4[nH]cc(-c5cccc(F)c5)c4c3)cn2)CC1 [Compound 1, 3-(3-fluorophenyl)-5-(1-(1-methylpiperidin-4-yl)-1H-pyrazol-4-yl)-1H-pyrrolo[2,3-b]pyridine] | CNS+ (CNS+, correlating with a bibliographic P e > 4) | 1.02 ± 0.03 | 1.02 ± 0.03 μmol of trolox equivalents/μmol of tested compound | particularly strong | activity at the nanomolar level; also recorded: comparable to the reference compound, harmine | nontoxic | exhibited toxicity |  | most pronounced effects | 
7 |  | 577 ± 49 |  | CN1CCC(n2cc(-c3cnc4[nH]cc(-c5cc(Cl)cc(Cl)c5)c4c3)cn2)CC1 [Compound 6, 3-(3,5-Dichlorophenyl)-5-(1-(1-methylpiperidin-4-yl)-1H-pyrazol-4-yl)-1H-py-rrolo[2,3-b]pyridine] | CNS+ (CNS+, correlating with a bibliographic P e > 4) |  |  |  |  |  |  | nontoxic |  | around 0.5 trolox equivalents
8 | 79 ± 5 | 119 ± 11 |  | COc1cccc(-c2c[nH]c3ncc(-c4cnn(C5CCN(C)CC5)c4)cc23)c1 [Compound 5, 3-(3-Methoxyphenyl)-5-(1-(1-methylpiperidin-4-yl)-1H-pyrazol-4-yl)-1H-pyrro-lo[2,3-b]pyridine] | CNS+ (CNS+, correlating with a bibliographic P e > 4) | 1.25 ± 0.07 | 1.25 ± 0.07 μmol of trolox equivalents/μmol of tested compound | particularly strong | comparable to the reference compound, harmine | nontoxic | exhibited toxicity |  |  | 
